Test results from EP2177533A1, “Multiple N-methylated cyclic hexapeptides for treatment of neurogenic inflammation” (TU München, priority 2008, dated 2010).
Marks after values point to notes of the source that are not given here.

How the values were obtained:
[1] = cited from earlier work
[2] = cited from earlier work; remark: listed apart in the source
[3] = tested on: peripheral terminals of sensory nerves of the isolated rat trachea; assay: Electrical field stimulation-induced CGRP release from sensory nerve terminals of the isolated rat trachea (RIA); settings: 500 nM; for EFS-evoked increase in the outflow of CGRP: stimulated and post-stimulated fractions vs control; for CGRP release in % compared to the prestimulated fraction: total CGRP release in stimulated and poststimulated fractions together vs basal outflow, n=5, mean with spread
Method: (§1) • Figure 1 provides a graphical representation of the effect of some compounds of the present invention on electrical field stimulation (EFS; 40 V, 0.1 ms, 10 Hz for 120 s; 1200 pulses)-induced calcitonin gene-related (CGRP) release from sensory fibres of the isolated rat tracheae. Each column represents the mean±s.e.m. CGRP concentration measured in the incubation medium of the prestimulated, stimulated and poststimulated 8-minute fractions of n = 5 experiments (5 x 2 tracheae/group). Analogs were added to the incubation medium (500 nM) at the beginning of the second and third fractions. *P<0.05, **P<0.01, vs. respective fraction of the control experiment (Mann-Whitney U-test). • Figure 2 provides a graphical representation of the effect of small peptide somatostatin analogs on 1% mustard oil-induced acute neurogenic plasma protein extravasation in the dorsal skin of the rat paw. Each column represents the mean±s.e.m. Evans blue accumulation per g wet skin of n = 6-10 experiments. Analogs were injected i.p. (100 µg/kg) 10 min before the induction of the inflammation. *P<0.05 vs. solvent-treated control experiment (Mann-Whitney U-test).
The activities of the above described synthetic somatostatin analogs were determined by means of an in vitro pharmacological assay on the release of the sensory neuropeptide CGRP from the peripheral terminals of sensory nerves of the isolated rat trachea. This experimental model was established more than 10 years ago (Helyes et al. (1997) Br. J. Pharmacol. 121, 613-615; Szolcsányi et al. (1998) Br. J. Pharmacol. 123, 936-942; Szolcsányi et al. (1998) Br. J. Pharmacol. 125, 916-922; Helyes et al. (2004) Arthr. Rheum., 50, 1677-1685; Bölcskei et al. (2005) Pain 117, 368-376; Helyes et al. (2007) Am. J. Physiol. Lung Cell. Mol. Physiol. 292, L1173-81; Nemeth et al. (1998) Eur. J. Pharmacol, 347, 101-104.) and it represents a reliable and sensitive technique for the investigation of drug effects at the level of peripheral nerve endings. Electrical field stimulation parameters are used to induce CGRP release that is selective for capsaicin-sensitive afferents. Since CGRP is an important mediator of neurogenic inflammation, the effectiveness of compounds in decreasing its electrically-evoked release in vitro may be seen as an indicator for effectiveness to inhibit neurogenic inflammatory reactions in vivo.
Experiments were performed on male Wistar rats bred and kept in the Laboratory Animal Centre of the University of Pécs under standard pathogen free conditions at 24-25 °C and provided with standard rat chow and water ad libitum. The method has been described in detail elsewhere (Helyes et al. (1997) Br. J. Pharmacol. 121, 613-615; Nemeth et al. (1998) Eur. J. Pharmacol. 347, 101-104.). In brief, rats were exsanguinated in deep anesthesia (sodium thiopental, 50 mg/kg i.p.), then the whole trachea was removed and cleaned of fat and adhering connective tissues. Tracheae from two rats were placed into the same organ bath (1.8 ml) to achieve sufficient amount of peptide release and perfused (1 ml/min) with pH- (7.2) controlled oxygenized Krebs solution for 60 min (equilibration period) at 37 °C temperature. After discontinuation of the flow, the solution was changed three times for eight minutes to produce prestimulated, stimulated, poststimulated fractions. In the second 8-min period electrical field stimulation (EFS; 40 V, 0.1 ms, 10 Hz for 120 s; 1200 pulses) was performed to elicit neurotransmitter release. Concentration of CGRP was determined from 200 µL samples of the incubation medium by a selective and specific radioimmunoassay (RIA) technique as described previously in detail (Nemeth et al., 1996; Helyes et al., 1997; Nemeth et al., 1998; Nemeth et al., 1999). Peptide outflow was expressed as the released amount per wet tissue weight. Detection limit of the assay was 0.2 fmol/tube. […]

[4] = tested on: 1% mustard oil-induced neurogenic plasma protein extravasation in the rat paw skin; assay type: in vivo; settings: 100 µg/kg i.p., 10 min before induction of inflammation; rat hindpaw dorsal skin
Method: as §1, with “Analogs were injected i.p. (100 µg/kg) 10 min before the induction of the inflammation. *P<0.05 vs. solvent-treated control experiment (Mann-Whitney U-test).” left out
To confirm the findings of this in vitro study, a further in vivo activity test was performed: Compounds of the invention were examined on 1% mustard oil-induced neurogenic plasma protein extravasation in the rat paw skin.
Both hindlegs of the rats were acutely denervated (the sciatic and the saphenous nerves were cut 30 min before the induction of inflammation) under sodium pentobarbitone (Nembutal, 40 mg/kg i.p.) anaesthesia to avoid central reflexes. Acute neurogenic inflammation in the dorsal skin of the hindpaws was evoked by topical application of 1 % mustard oil dissolved in paraffin oil. Extravasation of plasma albumin was measured by the Evans blue leakage method. Evans blue (50 mg/kg) was injected i.v. and neurogenic inflammation was induced 10 min later. Rats were killed by exsanguination 20 min after mustard oil application. […] The amount of the accumulated Evans blue, which quantitatively correlates with the intensity of plasma extravasation, was expressed as µg dye/g wet tissue (Helyes et al., 1997; Helyes et al., 2001). […]

[5] = cited from earlier work; remark: listed apart in the source

Row | Compound | stability in the blood and in the gastrointestinal tract [1] | bioavailability after oral administration [2] | CGRP outflow in the poststimulated fraction ([3]; poststimulated fraction) | EFS-evoked increase in the outflow of CGRP [3] | inhibitory action on CGRP outflow in the stimulated period ([3]; stimulated fraction, EFS 1200 pulses) | CGRP release in % compared to the prestimulated fraction [3] | µg Evans blue/g wet tissue (mean±s.e.m.) [4] | half life in serum [5] [min]
1 | CC(C)[C@@H]1NC(=O)[C@H](CCCCN)NC(=O)[C@@H](Cc2c[nH]c3ccccc23)NC(=O)[C@H](Cc2ccc(O)cc2)NC(=O)[C@H](C)N(C)C(=O)[C@H](Cc2ccccc2)NC1=O [MK-678-0, c(-MeAYwKVF-)] | quite stable | 1-3% | – | – | – | – | – | –
2 | CC(C)[C@@H]1NC(=O)[C@H](CCCCN)N(C)C(=O)[C@@H](Cc2c[nH]c3ccccc23)N(C)C(=O)[C@H](Cc2ccc(O)cc2)NC(=O)[C@H](C)N(C)C(=O)[C@H](Cc2ccccc2)N(C)C1=O [MK-678-1, cyclo(-MeAla-Tyr-D-MeTrp-MeLys-Val-MePhe-)] | – | – | completely abolished | significantly inhibited | about 70% | 99,58 ± 39,89** % | 90.06±10.4* µg Evans blue/g wet tissue | –
3 | CC(C)[C@@H]1NC(=O)[C@H](CCCCN)N(C)C(=O)[C@@H](Cc2c[nH]c3ccccc23)N(C)C(=O)[C@H](Cc2ccc(O)cc2)NC(=O)[C@H](C)N(C)C(=O)[C@H](Cc2ccccc2)NC1=O [MK-678-2, cyclo(-MeAla-Tyr-D-MeTrp-MeLys-Val-Phe-)] | – | – | – | significantly inhibited | – | 153,12 ± 29,72* % | 119.92±32.7 µg Evans blue/g wet tissue | –
4 | CC(C)[C@@H]1NC(=O)[C@H](CCCCN)N(C)C(=O)[C@@H](Cc2c[nH]c3ccccc23)NC(=O)[C@H](Cc2ccc(O)cc2)NC(=O)[C@H](C)N(C)C(=O)[C@H](Cc2ccccc2)NC1=O [MK-678-3, cyclo(-MeAla-Tyr-D-Trp-MeLys-Val-Phe-)] | – | – | – | significantly inhibited | – | 181,57 ± 54,17* % | 127.13±23.0 µg Evans blue/g wet tissue | –
5 | Somatostatin | – | – | – | – | – | – | – | < 3
